Source: US8501807B2, “Pentaerythritol derivatives” (priority 2004, dated 2013)

Experiments:
[1] = Evaluation of moisture retaining ability in dry conditions (weight change, 18° C., RH 20%); assay type: physicochemical; conditions: initial moisture content 60%, constant temperature and humidity chamber 18° C.
Protocol: Moisture retaining ability was evaluated and compared for the compounds obtained in the Examples.
Specifically, samples were prepared such that the moisture content of the compounds obtained in the Examples was 60%, and while the samples were kept in a constant temperature and humidity chamber (18° C., RH 20%), the weight change of the samples was observed over time, thereby enabling evaluation of the changes in moisture content.

[2] = tested on: hairless Guinea pigs; experiment: Evaluation of the increase of moisture content in the skin (Corneometer, acetone-damaged skin barrier); assay type: in vivo; conditions: flank, 200 μl applied after 30 min acetone patch; for moisture content of the stratum corneum, 6 h after sample application: relative to content directly after acetone treatment = 100, 6 h; for moisture content of the stratum corneum, 12 h after sample application: relative to content directly after acetone treatment = 100, 12 h; for moisture content of the stratum corneum, 24 h after sample application: relative to content directly after acetone treatment = 100, 24 h; for moisture content of the stratum corneum, 48 h after sample application: relative to content directly after acetone treatment = 100, 48 h
Protocol: The degree of the increase of moisture content in the skin was measured for the compounds obtained in the Examples. The increase of moisture content in the skin was measured by dividing 50 hairless Guinea pigs into 10 groups, and applying the compounds obtained in the Examples to each group.
Specifically, after the skin barrier was damaged by patching acetone using Finn chamber for 30 minutes to the flank site of the experiment animals, 200 μl of each experimental substance was applied to the patched site, then the moisture content of the stratum corneum of the site was measured using Corneometer and then evaluated. Apparatus measurements were carried out directly after and 6 hours, 12 hours, 24 hours and 48 hours after removing the acetone patch. Changes of moisture content in the skin were evaluated relative to the content measured directly after the acetone treatment, which was set to be 100.

Molecule | moisture content of sample, 1 h [1] [%] | moisture content of sample, 2 h [1] [%] | moisture content of sample, 4 h [1] [%] | moisture content of sample, 6 h [1] [%] | moisture content of the stratum corneum, 6 h after sample application [2] | moisture content of the stratum corneum, 12 h after sample application [2] | moisture content of the stratum corneum, 24 h after sample application [2] | moisture content of the stratum corneum, 48 h after sample application [2]
pentaerythritol ethoxylate (3/4 EO/OH) glycolic ester ethoxylate octyl ether(pentaerythritol ethoxylate (3/4 EO/OH) capreth-4 carboxylate) [Example 17] | 57 | 53 | 47 | 38 | 103 | 106 | 108 | 104
pentaerythritol glycolic ester ethoxylate cetyl ether (pentaerythritol ceteth-10 carboxylate) [Example 10] | 58 | 57 | 50 | 44 | 101 | 105 | 109 | 113
pentaerythritol ethoxylate (15/4 EO/OH) glycolic ester ethoxylate stearyl ether (pentaerythritol ethoxylate (15/4 EO/OH) steareth-10 carboxylate) [Example 42] | – | – | – | – | 106 | 110 | 109 | 111
pentaerythritol glycolic ester ethoxylate lauryl ether (pentaerythritol laureth-4 carboxylate) [Example 5] | 58 | 55 | 49 | 41 | 98 | 99 | 103 | 105

Now from value to molecule, other results behind:

moisture content of sample, 1 h [1] [%] | moisture content of sample, 2 h [1] [%] | moisture content of sample, 4 h [1] [%] | moisture content of sample, 6 h [1] [%] | Molecule | moisture content of the stratum corneum, 6 h after sample application [2] | moisture content of the stratum corneum, 12 h after sample application [2] | moisture content of the stratum corneum, 24 h after sample application [2] | moisture content of the stratum corneum, 48 h after sample application [2]
57 | 55 | 50 | 43 | pentaerythritol ethoxylate (15/4 EO/OH) glycolic ester ethoxylate hexyl ether (pentaerythritol ethoxylate (15/4 EO/OH) hexeth-4 carboxylate) [Example 29] | 106 | 109 | 111 | 109
58 | 52 | 44 | 29 | pentaerythritol ethoxylate (15/4 EO/OH) glycolic ester ethoxylate cetyl ether (pentaerythritol ethoxylate (15/4 EO/OH) ceteth-10 carboxylate) [Example 38] | 108 | 111 | 112 | 114
57 | 50 | 41 | 25 | OCC(O)CO [Glycerol, reference compound] | 109 | 113 | 115 | 117
56 | 52 | 48 | 43 | pentaerythritol ethoxylate (3/4 EO/OH) glycolic ester ethoxylate cetyl ether (pentaerythritol ethoxylate (3/4 EO/OH) ceteth-4 carboxylate) [Example 22] | 100 | 105 | 109 | 115
58 | 56 | 49 | 45 | pentaerythritol ethoxylate (15/4 EO/OH) glycolic ester ethoxylate lauryl ether (pentaerythritol ethoxylate (15/4 EO/OH) laureth-6 carboxylate) [Example 34] | 105 | 110 | 116 | 114
